These results are taken from patent publication US7525013B2, “Soybean selection system based on AEC-resistance” (United Soybean Board, priority 2003, dated 2009).

A word on the IC50: it is the concentration that inhibits the measured activity by half.

Assay [1] concerns larger plants grown in the green house. Put plainly: Weed control on larger plants grown in the green house. The class given is in vivo. On the procedure:
(§1) A major dicot and monocot weed of tobacco, pigweed (Amaranthus retroflexus) and giant foxtail (Setaria faberi) was used in addition to a model crop plant, tobacco. […] For larger plants grown in the green house 20 mM lysine and threonine or 40 mM lysine alone are needed for effective weed control. To increase uptake of these compounds, up to 0.2% Silwett (surfactant) was used. Silwett at 0.5% and above kills the plants. Silwett was not found to be a very effective surfactant. Studies with cultured cells and seedlings indicate that 100 μM levels of AEC are effective for selection.

In the next assay the target is plant enzymes (DHPS). Conditions: read-out: IC50 for lysine; cited from earlier work.
The target in assay [2] is T1, DHPS enzyme, tryptophan53 (W) to Arginine53 (R) (Arabidopsis thaliana, UniProt Q9LZX6, W116R).
T1 construct: host or cells: E. coli auxotroph AT997 (clones expressing the plant cDNA)
As to conditions: W53R DHPS; cited from earlier work.

Assay [3] deals with DHPS enzyme, tryptophan53 (W) to Arginine53 (R). Conditions: W53R DHPS; cited from earlier work.
Another assay deals with soybean seeds. Put plainly: Germination of soybean seeds on AEC containing agar plates. The class given is in vivo. As to the method: (§2) As a first step in the selection, different concentrations of AEC were used to see if it can kill the proliferating soybean somatic embryos as well as tobacco leaves and germinating tobacco and soybean seeds and germinating soybean somatic embryos. The effect of AEC is clearly seen in all these cases with varying concentrations. […] For proliferating soybean somatic embryo concentrations up to 1 mM AEC is needed along with 0.0075% methylated seed oil to kill them. To further confirm that AEC is acting on the above mentioned tissues, the E. coli DHDPS gene was cloned and put into the binary vector p1201 with the pea RBCs transit peptide under the CaMV 35S promoter.
(§3) An AEC selection system for soybean seeds with precise genetic changes and model system seeds (for rapid system validation) were germinated on 2 mM and 5 mM AEC containing agar plates. On the control plates without AEC all the seeds germinated, however only ˜10% of the soybean seeds germinated on 2 mM AEC plates and none on 5 mM plates.
(§4) To determine whether AEC can be developed as a selectable marker for soybeans the effect of different concentrations of AEC was examined on the germination of soybean seeds and matured soybean somatic embryos and on proliferating soybean somatic embryos. The effect of AEC is clearly seen in all these cases with varying concentrations. The effect of AEC was also examined as a herbicide against pigweed, foxtail and tobacco.

Another assay concerns tobacco seeds. Put plainly: Germination of tobacco seeds. The class given is in vivo. Conditions: germinating tobacco seeds. As to the method:
as §2

In a further assay the test system is model system seeds. Put plainly: Germination of model system seeds on AEC containing agar plates. The format is in vivo. As to conditions: 2 mM and 5 mM AEC agar plates. As to the method: as §3
In assay [4] the test system is germinating soybean somatic embryos. As to the kind of experiment: Germination of soybean somatic embryos. The class given is cell-based. As to the method:
as §2
The effect of AEC on soybean somatic embryos were checked at two stages (1) during the germination (2) during proliferation. The AEC effect during germination was very effective with concentrations above 100 μM were enough to prevent the germination completely.
as §4

Assay [5] deals with proliferating soybean somatic embryos. As to the kind of experiment: Killing / growth inhibition of proliferating soybean somatic embryos. The class given is cell-based. As to the method:
as §2
However, selection during proliferation is always a better way as selected clones can be proliferated and the untransformed embryos can be killed in the earlier stages itself. Unfortunately concentrations up to 20 mM were not sufficient to kill most of the proliferating embryos, though some of the embryos turned yellowish and developed brown spots, but many of them continued to proliferate like controls even after two changes of the medium, once every 15 days. To find out if surfactants can help in AEC absorption during proliferation a methylated seed oil based surfactant was used. […] It was determined that a 0.005% concentration is suitable to use with AEC. […] The cultures on plates with 20 mM AEC died in 4 days indicating solid medium selection can be useful.
(§5) Spray studies have been done using major dicot and monocot weeds, pigweed (Amaranthus retroflexus) and giant foxtail (Setaria faberi) in addition to tobacco. These experiments using 7 to 10 day old seedlings show 20 mM AEC is lethal to pigweed, foxtail and tobacco.

Assay [6] has as its system pigweed (Amaranthus retroflexus). As to the kind of experiment: Herbicide spray study on pigweed. The class given is in vivo. As to the method: as §5, §1
Assay [7] concerns giant foxtail (Setaria faberi). As to the kind of experiment: Herbicide spray study on giant foxtail. The class given is in vivo. As to the method:
as §5, §1

The test system of another assay is tobacco. As to the kind of experiment: Herbicide spray study on tobacco. The format is in vivo. As to the method:
as §5, §1

In assay [8] the test system is cultured cells and seedlings. As to the kind of experiment: Selection studies with cultured cells and seedlings. The class given is cell-based. On the procedure: as §1
The test system of assay [9] is E. coli auxotroph AT998 rescued with modified soybean DHPS gene. As to the kind of experiment: Growth of E. coli auxotroph rescued with modified soybean DHPS gene on 2-AEC plates. The class given is cell-based. Conditions: minimal media plates with 0.5 mM 2-AEC. From the text:
To test if the modified soy DHDPS can become insensitive to AEC and whether 18:1 desaturases can function as a 16:1 desaturase, experiments were conduced with E. Coli auxotrophs. A DHDPS auxotroph was obtained from the E. coli genetic center that can be rescued on medium without diaminopimelic acid when transformed with lysine insensitive DHPS and not with the wild type gene. Similarly, the E. coli auxotroph (fabA/fadR mutant) was obtained which can be complimented by C14 and C16 ACP desaturases but not by stearoyl-ACP desaturases. The primers required for cloning were designated and obtained from soybean genes. A suitable E. coli expression vector was obtained to express these genes in the respective auxotrophs.
It was shown in Arabidopsis, and populous deltoidsXpopulus tricho carpa modification of tryptophan53 (W) to Arginine53 (R) made the DHPS enzyme from these two plants insensitive to lysine concentrations up to 1 mM. E. coli auxotroph AT997 was rescued using these modified genes. This tryptophan residue is present in the consensus sequence MSWDEHI (SEQ ID NO: 6) in several plant DHPS genes (Vauterin et al.,2000). […] With our modified soybean DHPS gene we obtained similar results. We also targeted the tryptophan residue present in the consensus sequence MSWDEHI (SEQ ID NO: 6) in the soybean DHPS gene to convert it to arginine.

The target of the next assay is DHPS enzyme of E. coli (Escherichia coli, UniProt P0A6L2). As to conditions: E. coli DHPS versus plant enzymes; cited from earlier work.
The test system of assay [10] is Clones expressing the insensitive plant DHPS enzymes (E. coli auxotroph AT997). Conditions: clones expressing lysine insensitive plant DHPS; cited from earlier work.

T1 sequence (Q9LZX6 40-365 W116R): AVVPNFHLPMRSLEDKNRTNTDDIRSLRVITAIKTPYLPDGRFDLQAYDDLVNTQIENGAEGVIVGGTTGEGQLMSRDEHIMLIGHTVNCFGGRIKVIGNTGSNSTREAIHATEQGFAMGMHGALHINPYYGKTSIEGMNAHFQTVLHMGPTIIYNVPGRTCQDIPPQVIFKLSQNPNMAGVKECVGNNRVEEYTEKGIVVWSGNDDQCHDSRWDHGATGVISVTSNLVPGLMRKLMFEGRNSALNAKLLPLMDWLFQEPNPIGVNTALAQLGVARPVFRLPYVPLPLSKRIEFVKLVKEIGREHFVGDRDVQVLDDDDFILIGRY
Sequence of DHPS enzyme of E. coli (P0A6L2 whole entry): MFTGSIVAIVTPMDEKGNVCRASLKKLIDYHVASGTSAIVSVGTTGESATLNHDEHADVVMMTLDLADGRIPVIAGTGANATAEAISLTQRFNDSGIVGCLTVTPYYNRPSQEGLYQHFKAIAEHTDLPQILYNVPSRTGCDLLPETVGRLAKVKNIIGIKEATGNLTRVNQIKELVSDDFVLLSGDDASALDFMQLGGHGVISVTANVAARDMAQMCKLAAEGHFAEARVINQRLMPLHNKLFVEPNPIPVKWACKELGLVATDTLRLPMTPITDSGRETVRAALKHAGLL

As to `NCCCC[C@H](N)C(=O)O` [lysine], the “concentration needed for effective weed control” value in assay [1] is listed as 40 mM. For the same compound, on plant enzymes (DHPS), the IC50 was 10 µM. The “lysine concentrations to which the modified DHPS enzyme is insensitive” value in assay [2] and in [3] was “up to 1 mM” each time.

Turning to `NCCSC[C@H](N)C(=O)O` [AEC, S-2-aminoethyl-cysteine], the soybean seeds germinated in the assay with soybean seeds (2 mM AEC agar plates, all seeds germinated on control plates) is approximately 10%; in the assay with soybean seeds (5 mM AEC agar plates), “none”. For the same compound, the “effect on germination of soybean seeds” value with soybean seeds (2.5 mM AEC) was “quite effective”. Further, the “inhibition of seed germination” value in the assay on soybean seeds (qualitative) is on record as “can inhibit”. Further, the “AEC concentration required to completely inhibit germination of tobacco seeds” value in the assay with tobacco seeds stood at 2.5 mM. The “model system seeds germinated” value in the assay on model system seeds is listed as “Not a single model system seed germinated”. For the same compound, the “effect on germination of soybean somatic embryos” value in [4] (100 μM AEC) is “quite effective”. For the same compound, in assay [4] (Example 1), the “AEC concentration sufficient to completely inhibit germination of soybean somatic embryos” value is recorded as 100 μm. Moreover, the “inhibition of soybean somatic embryos (SSE) germination” value in assay [4] (qualitative) was “can inhibit”. Besides, the “AEC concentration needed to kill proliferating soybean somatic embryos” value in [5] (along with 0.0075% methylated seed oil) is given as “up to 1 mM”. Besides, the “AEC concentration sufficient to kill proliferating soybean somatic embryos” value in [5] (on 1/5th D20 medium (1/5 MS salts, 1/5 B5 vitamins, 20 mg/L 2,4-D)) was found to be 1.5 mM. Moreover, in [5] (solid medium plates, 0.2% surfactant, 20 mM AEC), the “time until cultures died” value is 4 days. In addition, the “state of proliferating embryo cultures” value in assay [5] (solid medium, 0.2% surfactant, 10 mM AEC, controls behaved the same) was “remained green with growth for two weeks before they died”. In addition, the “AEC concentrations not sufficient to kill most of the proliferating embryos” value in assay [5] (without surfactant, two changes of medium, once every 15 days) was “up to 20 mM”. Moreover, in assay [6] (7 to 10 day old seedlings), the “concentration lethal to pigweed” value is 20 mM. Also, the “concentration that effectively prevented the growth of pig weed” value in assay [6] (whole plant level) is reported as 20 mM. For the same compound, the “concentration lethal to foxtail” value in assay [7] (7 to 10 day old seedlings) was 20 mM. The “concentration sufficient to kill fox tail” value in assay [7] (whole plant level) is reported as 20 mM. Besides, the “concentration lethal to tobacco” value in the assay with tobacco (7 to 10 day old seedlings) is 20 mM. The “concentration sufficient to kill tobacco” value in the assay on tobacco (whole plant level) was 20 mM. Besides, the “AEC levels effective for selection” value in [8] came out at 100 µM. For the same compound, in assay [9], the “growth of rescued auxotroph” value is “grows well”. Moreover, on DHPS enzyme of E. coli, the “fold less sensitive to AEC than plant enzymes” value is 50 fold. Moreover, the “2-AEC concentration to which clones were resistant” value in assay [10] is on record as 2.5 mM.
